Source: patent US5332733A, “Heterocyclically substituted piperazinoakylbenzoxazine and piperazinoalkylbenzothiazine compounds, processes for preparing them, and medicaments containing them” (Kali-Chemie Pharma GmbH, priority 1990, dated 1994)

Target: T1, 5-lipoxygenase (Mus musculus, UniProt P48999)
T1 construct: A cell suspension containing peritoneal cells from male mice 8-10 weeks old was obtained in a known manner; endogenous in cells; host or cells: mouse peritoneal macrophages (primary, adherent)
T1 sequence (P48999 1-674): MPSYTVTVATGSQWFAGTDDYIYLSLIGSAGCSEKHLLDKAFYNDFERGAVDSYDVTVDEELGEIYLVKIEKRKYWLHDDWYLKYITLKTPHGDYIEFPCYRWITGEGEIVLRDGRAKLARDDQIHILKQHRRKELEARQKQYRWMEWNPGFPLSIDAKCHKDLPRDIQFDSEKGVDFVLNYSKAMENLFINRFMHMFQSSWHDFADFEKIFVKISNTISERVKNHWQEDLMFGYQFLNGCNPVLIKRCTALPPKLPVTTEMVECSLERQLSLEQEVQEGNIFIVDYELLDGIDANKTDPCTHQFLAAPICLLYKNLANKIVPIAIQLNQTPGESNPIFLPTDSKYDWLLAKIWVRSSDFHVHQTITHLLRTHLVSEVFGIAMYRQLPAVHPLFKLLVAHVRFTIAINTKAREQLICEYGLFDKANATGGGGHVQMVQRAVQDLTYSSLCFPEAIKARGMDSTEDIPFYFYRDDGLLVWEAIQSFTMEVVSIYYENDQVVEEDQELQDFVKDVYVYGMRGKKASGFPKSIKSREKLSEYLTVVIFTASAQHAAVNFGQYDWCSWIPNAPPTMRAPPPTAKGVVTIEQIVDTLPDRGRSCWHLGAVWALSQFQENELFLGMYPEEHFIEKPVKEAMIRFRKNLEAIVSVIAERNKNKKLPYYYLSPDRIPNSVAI
Assay: In vitro 5-lipoxygenase inhibition, release of LTC4 from zymosan-stimulated peritoneal macrophages
Type: cell-based
Details: zymosan-stimulated mouse peritoneal macrophage cells, 10^-5 mole/l
From the text: 5. In Vitro Determination of Cyclooxygenase Inhibition And 5-lipoxygenase Inhibition.
After a cell is activated, arachidonic acid contained in cell membranes is metabolized in two ways. Leucotrienes, inter alia leucotriene C4, are formed due to the action of the enzyme 5-lipoxygenase (=5-LO), and prostanoids are formed due to the action of the enzyme cyclooxygenase (=CO). In in vitro systems these metabolites are secreted from the cell.
To evaluate the cyclooxygenase-inhibiting and 5-lipoxygenase-inhibiting properties of the test substances, their inhibitory activity on the biosynthesis of the arachidonic acid derivatives leucotriene C4 (=LTC4) and 6-keto-prostaglandin F1α (=6-keto-PGF1α) was determined in vitro on mouse peritoneal macrophage cells. For this purpose the LTC4 and 6-keto-PGF1α contents of a mouse peritoneal macrophage cell culture medium were determined by zymosan stimulation as described by Scott et al. (J. Exp. Med. 152 (1980), 324-335) and by Fradin et al., (Prostaglandins, 33 (1987), 579-589).
A cell suspension containing peritoneal cells from male mice 8-10 weeks old was obtained in a known manner. A solution marketed under the designation RPMI 1640 (Manufactured by Gibco) was used as the cell culture medium, to which heparin (10 international units/ml) and antibiotics were added according to the procedure of Bonney et al. (Biochem. J. 176 (1978) 422-433). The cell suspension was adjusted to a cell concentration of 10^6 cells per ml and distributed uniformly on titer dishes containing 24 1-ml titer cells (wells). These were kept for two hours in a humidified incubator filled with air enriched with 7% CO2. Cells not adhering to the titer well walls were then removed by washing. The remaining macrophage cells adhering to the walls were incubated for about 12 hours in a suspension medium to which 0.1% of bovine serum albumin (BSA=Bovine Serum Albumin) was added. The suspension medium was then replaced by a Hanks salt solution (=Hanks Balanced Salt Solution=HBSS) with 10 mmoles of HEPES (=hydroxyethylpiperazinoethanesulfonic acid) to which a 0.1% strength solution of the test substances in aqueous, 1% strength dimethylformamide or only the solvent had been added. After 15 minutes the arachidonic acid metabolism was stimulated by adding […] of zymosan (=glycoprotein mixture isolated from cell walls of beer yeast, Saccharomyces cerevisiae, Manufactured by Sigma Chemical Co., Munich) per titre cell. After 2 hours samples of the respective supernatant liquid in each cell were examined for their 6-keto-PGF1α and LTC4 contents by an enzyme immunoassay (=EIA). This EIA is carried out following the method of Pradelles et al. (Analytical Chem. 57 (1985), 1170-1173). The determination of LTC4 and the determination of 6-keto-PGF1α were each carried out on suitable dilutions of the samples (1:50 to 1:250 for the LTC4 determination and 1:250 to 1:1,250 for the 6-keto-PGF1α determination) in comparison with a comparative scale. To determine the inhibiting effect of a 10^-5 molar concentration of the compounds, the amounts of reference eicosanoid were determined, and the inhibiting effect was calculated therefrom in % inhibition compared to the measurements of the zymosan controls.

Row | Compound | % inhibition upon release of LTC4 [%]
1 | Cc1ccnc(N2CCN(CCCCC3Sc4ccccc4NC3=O)CC2)c1 (centres unmarked) [Example 1, 2-{4-[4-(4-methylpyridin-2-yl)-piperazin-1-yl]butyl}-2H-1,4-benzothiazine-3(4H)-one] | 48
2 | Cc1ccnc(N2CCN(CCCCC3Oc4ccccc4NC3=O)CC2)c1 (centres unmarked) [Example 7] | 46
3 | Cc1ccnc(N2CCN(CCCC3Oc4ccccc4NC3=O)CC2)c1 (centres unmarked) [Example 9] | 65
4 | Cc1ccnc(N2CCN(CCCC3Sc4ccccc4NC3=S)CC2)c1 (centres unmarked) [Example 11] | 42
5 | O=C1Nc2ccccc2SC1CCCN1CCN(c2ccc(Cl)cn2)CC1 (centres unmarked) [Example 15] | 9
